Assay results reported in patent US7435832B2, “Crystals including a malic acid salt of a 3-pyrrole substituted 2-indolinone, and compositions thereof” (Pharmacia & Upjohn Company, priority 2001, dated 2008).
Counter-ions that a name gives are not always drawn.

Columns and labels:
Format in all cases: physicochemical
[1] = Solid state stability study of bulk crystals (HPLC analysis, PXRD); conditions: for Purity (Area %) / Total Impurities (Area %): HPLC
Description: As referred to in the present application, “stable” in bulk drug stability tests means that at least about 97% by weight, preferably at least about 98% by weight, and more preferably at least about 99% by weight of the bulk drug remains unchanged after storage under the indicated conditions for the indicated time.
A solid state stability study of Crystal Form I of the L-malic acid salt of N-[2-(diethylamino)ethyl]-5-[(5-fluoro-1,2-dihydro-2-oxo-3H-indol-3-ylidene)methyl]-2,4-dimethyl-1H-pyrrole-3-carboxamide was also conducted (Table 2).

[2] = Solubility in water; conditions: in water at 25° C.
Protocol: The solubility of Crystal Form I of the L-malic acid salt of N-[2-(diethylamino)ethyl]-5-[(5-fluoro-1,2-dihydro-2-oxo-3H-indol-3-ylidene)methyl]-2,4-dimethyl-1H-pyrrole-3-carboxamide was determined to be 5 mg/mL in water at 25° C.

[3] = Dynamic moisture sorption gravimetry (DMSG), hygroscopicity; conditions: for Water absorbed (moisture sorption): across the 0-90% relative humidity range, 25° C.
Protocol: X-ray diffraction (XRD) patterns were measured on a Scintag X2 diffractometer (Thermo ARL, Ecublens, Switzerland) equipped with a theta-theta goniometer. Melting points were determined using a TA Instruments 2920 differential scanning calorimeter (TA Instruments, New Castle, Del.) with standard crimped pans and a heating rate of 10° C./minute. Hygroscopicity was assessed by dynamic moisture sorption gravimetry (DMSG) using a Controlled Atmosphere Microbalance (Pharmacia Corp., Kalamazoo, Mich.). All chemicals used are available from Aldrich Chemical Co., Milwaukee, Wis., unless otherwise specified. N-[2-(diethylamino)ethyl]-5-[(5-fluoro-1,2-dihydro-2-oxo-3H-indol-3-ylidene)methyl]-2,4-dimethyl-1H-pyrrole-3-carboxamide was prepared as the free base by a procedure similar to that described in Example 80 of PCT International Publication No. WO 01/60814 (Tang et al.).
Dynamic Moisture Sorption Gravimetry (DMSG). DMSG isotherms were collected on the variable temperature controlled atmosphere microbalance. Approximately 10 mg samples were used in the balance. Samples were run as received. The humidity was sequentially set between 0 and 90% relative humidity (RH) in 3% RH steps. The mass was then measured every two minutes. The RH was changed to the next value when the mass of the sample was stable to within 0.5 microgram in 480 seconds. A Visual Basic program was used to control the data collection and export the information to an Excel spreadsheet.

CCN(CC)CCNC(=O)c1c(C)[nH]c(/C=C2\C(=O)Nc3ccc(F)cc32)c1C [Crystal Form I, L-malic acid salt of N-[2-(diethylamino)ethyl]-5-[(5-fluoro-1,2-dihydro-2-oxo-3H-indol-3-ylidene)methyl]-2,4-dimethyl-1H-pyrrole-3-carboxamide]
Purity (Area %) ([1]; 2 weeks at 60° C./75% RH): 99.6 Area % | Total Impurities (Area %) ([1]; 2 weeks at 60° C./75% RH): 1.2 Area % | Purity (Area %) ([1]; 2 weeks at 60° C./ambient RH): 98.2 Area % | Total Impurities (Area %) ([1]; 2 weeks at 60° C./ambient RH): 1.1 Area % | Purity (Area %) ([1]; 2 weeks at 80° C./ambient RH): 99.5 Area % | Total Impurities (Area %) ([1]; 2 weeks at 80° C./ambient RH): 1.2 Area % | Purity (Area %) ([1]; 4 weeks at 60° C./75% RH): 100.1 Area % | Total Impurities (Area %) ([1]; 4 weeks at 60° C./75% RH): 2.2 Area % | Purity (Area %) ([1]; 4 weeks at 60° C./ambient RH): 100.4 Area % | Total Impurities (Area %) ([1]; 4 weeks at 60° C./ambient RH): 1.2 Area % | Purity (Area %) ([1]; 4 weeks at 80° C./ambient RH): 98.0 Area % | Total Impurities (Area %) ([1]; 4 weeks at 80° C./ambient RH): 3.1 Area % | Purity (Area %) ([1]; Initial): 99.7 Area % | Total Impurities (Area %) ([1]; Initial): 1.5 Area % | Degradation after aging ([1]; four weeks at 60° C./ambient RH, 60° C./75% RH and 80° C./ambient RH): no significant degradation | Change in crystal form by powder X-ray diffraction ([1]; two-week stability samples): no change in crystal form | solubility [2]: 5000 µg/mL | Water absorbed (moisture sorption) [3]: less than 0.5%

CCN(CC)CCNC(=O)c1c(C)[nH]c(/C=C2\C(=O)Nc3ccc(F)cc32)c1C [Crystal Form II, L-malic acid salt of N-[2-(diethylamino)ethyl]-5-[(5-fluoro-1,2-dihydro-2-oxo-3H-indol-3-ylidene)methyl]-2,4-dimethyl-1H-pyrrole-3-carboxamide]
Water absorbed upon exposure to humidity ([3]; 80% relative humidity): at least 5 % by weight | Water absorbed (moisture sorption) [3]: over 15%
